In the supplement of paper PMC6045584:
± gives the standard deviation of the averaged measurements.

How the values were obtained:
CAMPTOTHECIN = compound: CC[C@@]1(O)C(=O)OCc2c1cc1n(c2=O)Cc2cc3ccccc3nc2-1 [CAMPTOTHECIN]; test: surviving fraction relative to DMSO-only wells; higher = less growth inhibition; details: exposure time: 5 days
In short: (§1)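 Viability values are CellTiter-Glo luminescence readings, given as surviving fraction against the median of DMSO-only wells. The readings were taken after 10 minutes at room temperature, following five days of continuous exposure to inhibitors at 0.5, 1, 5, 10, 50, 100, 500 and 1000 nM that began 24 hours after log-phase tumour cell lines were seeded at 250–500 cells per well in 384-well plates. Every line was screened three times and kept only if replicate Pearson r >0.7 and median Z' >0.3.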

CELECOXIB = compound: Cc1ccc(-c2cc(C(F)(F)F)nn2-c2ccc(S(N)(=O)=O)cc2)cc1 [CELECOXIB]; test: as above; details: exposure time: 5 days
In short: as §1

Row | Test System | surviving fraction (CAMPTOTHECIN; 0.5 nM) | surviving fraction (CAMPTOTHECIN; 1 nM) | surviving fraction (CAMPTOTHECIN; 5 nM) | surviving fraction (CAMPTOTHECIN; 10 nM) | surviving fraction (CAMPTOTHECIN; 50 nM) | surviving fraction (CAMPTOTHECIN; 100 nM) | surviving fraction (CAMPTOTHECIN; 500 nM) | surviving fraction (CAMPTOTHECIN; 1000 nM) | surviving fraction (CELECOXIB; 0.5 nM) | surviving fraction (CELECOXIB; 1 nM) | surviving fraction (CELECOXIB; 5 nM) | surviving fraction (CELECOXIB; 10 nM) | surviving fraction (CELECOXIB; 50 nM) | surviving fraction (CELECOXIB; 100 nM) | surviving fraction (CELECOXIB; 500 nM) | surviving fraction (CELECOXIB; 1000 nM)
1 | LM7 BONE | 0.73 ± 0.032 | 0.691 ± 0.08 | 0.422 ± 0.0056 | 0.232 ± 0.015 | 0.145 ± 0.018 | 0.0813 ± 0.0095 | 0.024 ± 0.0035 | 0.0243 ± 0.00058 | 0.979 ± 0.059 | 0.963 ± 0.023 | 1.06 ± 0.05 | 1.1 ± 0.086 | 1.04 ± 0.038 | 1.04 ± 0.023 | 0.944 ± 0.044 | 1.02 ± 0.068
2 | SAOS2 BONE | 0.794 ± 0.046 | 0.829 ± 0.024 | 0.677 ± 0.055 | 0.415 ± 0.018 | 0.129 ± 0.006 | 0.059 ± 0.005 | 0.0293 ± 0.0032 | 0.0267 ± 0.00058 | 1.14 ± 0.078 | 1.05 ± 0.026 | 1.187 ± 0.01 | 1.14 ± 0.06 | 1.22 ± 0.07 | 1.23 ± 0.054 | 1.11 ± 0.021 | 1.09 ± 0.018
3 | MDAMB231 BREAST | 0.887 ± 0.025 | 0.902 ± 0.028 | 0.803 ± 0.04 | 0.603 ± 0.019 | 0.276 ± 0.0089 | 0.211 ± 0.007 | 0.0976 ± 0.004 | 0.0968 ± 0.0048 | 0.973 ± 0.02 | 1 ± 0.015 | 0.985 ± 0.018 | 1 ± 0.015 | 1.01 ± 0.02 | 1.04 ± 0.012 | 1.04 ± 0.03 | 1.02 ± 0.033
4 | ZR751 BREAST | 0.774 ± 0.073 | 0.823 ± 0.12 | 0.693 ± 0.13 | 0.586 ± 0.099 | 0.266 ± 0.024 | 0.223 ± 0.005 | 0.121 ± 0.0096 | 0.0797 ± 0.0025 | 1.1 ± 0.19 | 1.1 ± 0.077 | 1.05 ± 0.07 | 1.07 ± 0.076 | 1.09 ± 0.084 | 1.15 ± 0.1 | 1.06 ± 0.026 | 1.04 ± 0.19
5 | ASKA SYNOVIAL | 0.303 ± 0.029 | 0.641 ± 0.065 | 0.349 ± 0.032 | 0.242 ± 0.025 | 0.118 ± 0.005 | 0.21 ± 0.0046 | 0.157 ± 0.0082 | 0.231 ± 0.0075 | 1.16 ± 0.098 | 1.15 ± 0.074 | 1.2 ± 0.05 | 1.19 ± 0.048 | 1.19 ± 0.12 | 1.21 ± 0.064 | 1.15 ± 0.073 | 1.12 ± 0.039
6 | DU4475 BREAST | 0.759 ± 0.11 | 0.643 ± 0.064 | 0.28 ± 0.055 | 0.135 ± 0.018 | 0.0357 ± 0.0042 | 0.0227 ± 0.0045 | 0.0217 ± 0.0015 | 0.0247 ± 0.0025 | 0.894 ± 0.08 | 0.836 ± 0.06 | 0.943 ± 0.095 | 0.937 ± 0.014 | 0.876 ± 0.051 | 0.892 ± 0.12 | 0.973 ± 0.18 | 0.872 ± 0.015
7 | HOS BONE | 0.902 ± 0.0096 | 0.889 ± 0.017 | 0.758 ± 0.011 | 0.25 ± 0.021 | 0.1 ± 0.0059 | 0.056 ± 0.005 | 0.0223 ± 0.00058 | 0.0237 ± 0.00058 | 1 ± 0.013 | 1.028 ± 0.0093 | 1.02 ± 0.012 | 1.018 ± 0.0023 | 1.06 ± 0.028 | 1.08 ± 0.031 | 1.06 ± 0.022 | 1.024 ± 0.007
8 | CASKI CERVIX | 0.798 ± 0.11 | 0.821 ± 0.062 | 0.575 ± 0.054 | 0.38 ± 0.035 | 0.0697 ± 0.0057 | 0.0273 ± 0.00058 | 0.018 | 0.0217 ± 0.0011 | 0.944 ± 0.024 | 0.881 ± 0.056 | 0.952 ± 0.029 | 0.93 ± 0.055 | 1.01 ± 0.027 | 1 ± 0.051 | 0.933 ± 0.034 | 0.972 ± 0.11
9 | HCC1395 BREAST | 0.71 ± 0.18 | 0.909 ± 0.071 | 0.788 ± 0.064 | 0.732 ± 0.044 | 0.627 ± 0.029 | 0.57 ± 0.086 | 0.421 ± 0.049 | 0.344 ± 0.09 | 1.17 ± 0.084 | 1.2 ± 0.13 | 1.32 ± 0.041 | 1.26 ± 0.053 | 1.27 ± 0.038 | 1.22 ± 0.041 | 1.25 ± 0.053 | 1.21 ± 0.037
10 | LNCAP PROSTATE | 0.98 ± 0.035 | 0.802 ± 0.047 | 0.254 ± 0.017 | 0.164 ± 0.01 | 0.0637 ± 0.0064 | 0.0507 ± 0.0067 | 0.023 ± 0.0035 | 0.0203 ± 0.0011 | 1.02 ± 0.042 | 0.956 ± 0.067 | 0.986 ± 0.057 | 1.01 ± 0.081 | 0.919 ± 0.012 | 0.998 ± 0.083 | 0.885 ± 0.057 | 0.94 ± 0.065
11 | 143B BONE | 0.911 ± 0.076 | 0.9815 ± 0.00071 | 0.947 ± 0.025 | 0.83 ± 0.07 | 0.12 ± 0.005 | 0.0595 ± 0.0064 | 0.021 | 0.0245 ± 0.00071 | 0.999 ± 0.011 | 1.04 ± 0.03 | 1.07 ± 0.057 | 1.05 ± 0.0021 | 1.08 ± 0.052 | 1.14 ± 0.072 | 1.08 ± 0.05 | 1.08 ± 0.033
12 | HMT3552 BREAST | 0.955 ± 0.056 | 0.944 ± 0.087 | 0.782 ± 0.031 | 0.422 ± 0.0095 | 0.224 ± 0.0076 | 0.215 ± 0.0061 | 0.0953 ± 0.005 | 0.0647 ± 0.0081 | 1.07 ± 0.057 | 1.07 ± 0.07 | 1.09 ± 0.026 | 1.11 ± 0.038 | 1.16 ± 0.019 | 1.18 ± 0.062 | 1.19 ± 0.078 | 1.27 ± 0.041
13 | SCC47 HEADNECK | 0.917 ± 0.019 | 0.924 ± 0.086 | 0.959 ± 0.019 | 0.919 ± 0.016 | 0.46 ± 0.012 | 0.375 ± 0.029 | 0.204 ± 0.0038 | 0.118 ± 0.0095 | 1.08 ± 0.089 | 1.11 ± 0.092 | 1.09 ± 0.096 | 1.12 ± 0.067 | 1.094 ± 0.0075 | 1.1 ± 0.026 | 1.1 ± 0.054 | 1.11 ± 0.033
14 | NCIH441 LUNG | 0.951 ± 0.045 | 0.896 ± 0.03 | 0.743 ± 0.019 | 0.474 ± 0.031 | 0.201 ± 0.02 | 0.114 ± 0.016 | 0.0587 ± 0.0095 | 0.044 ± 0.003 | 1.16 ± 0.019 | 1.19 ± 0.043 | 1.1 ± 0.11 | 1.11 ± 0.035 | 1.11 ± 0.068 | 1.06 ± 0.17 | 1.06 ± 0.14 | 1.1 ± 0.19
15 | YAMATO SYNOVIAL | 0.118 ± 0.0092 | 0.562 ± 0.092 | 0.466 ± 0.035 | 0.479 ± 0.033 | 0.0957 ± 0.0085 | 0.247 ± 0.026 | 0.16 ± 0.0095 | 0.284 ± 0.028 | 1.3 ± 0.17 | 1.38 ± 0.056 | 1.4 ± 0.12 | 1.47 ± 0.11 | 1.42 ± 0.11 | 1.47 ± 0.14 | 1.39 ± 0.094 | 1.36 ± 0.21
16 | SYO1 SYNOVIAL | 0.359 ± 0.023 | 0.663 ± 0.033 | 0.325 ± 0.026 | 0.15 ± 0.024 | 0.0272 ± 0.0011 | 0.0304 ± 0.00084 | 0.0254 ± 0.0012 | 0.0321 ± 0.0019 | 0.952 ± 0.052 | 0.998 ± 0.055 | 0.985 ± 0.065 | 0.9986 ± 0.0091 | 0.974 ± 0.022 | 0.955 ± 0.043 | 0.975 ± 0.07 | 1.04 ± 0.061
